The record followed here is ChEMBL document CHEMBL5728660, “Monosaccharide amine and 3-nitro-2-phenyl-2H-chromene based inhibitors of glucose kinases” (2021).

The nature of this assay: enzyme-inhibition screening assay: The 16 compounds showing substantial inhibition against TcGlcK at compound concentrations of 20 μM were then examined in a confirmatory assay in which the amino sugar analogues were at a concentration of 20 μM and were tested against the assay's only coupling enzyme, G6PDH, to verify enzyme activity; the assay was performed in quadruplicate. […] These confirmed hits included representatives from all three monosaccharide scaffolds tested (i.e., D-GlcN, D-ManN, and D-GalN).

For orientation: IC50 means the concentration that gives 50% inhibition. A higher IC50 goes with weaker potency in that assay. For the compound `O=C(N[C@H]1C(O)O[C@H](CO)[C@@H](O)[C@@H]1O)c1ccccc1` (stereo partly specified), the IC50 was found to be 16.1 µM.
